In paper PMC4776135, “Small Molecule Inhibition of Ligand-Stimulated RAGE-DIAPH1 Signal Transduction” (Scientific Reports, 2016):

How the values were obtained:
[1] = tested on: Il6 mRNA in primary murine aortic endothelial cells (MAECs); test: CML-AGE-mediated upregulation of Il6 mRNA, real-time quantitative PCR; assay type: cell-based; conditions: 1 µM compound 1.5 h, CML-AGE 10 µg/ml 6 h
Method: First, we tested the effects of RAGE ligand CML-AGE in primary murine aortic endothelial cells (MAECs). […] To assess the effects of the compounds, we pre-treated MAECs for 1.5 h with compounds 1–13 (1 μM).
Figure 5 Effects of compounds 1–13 on RAGE ligand-stimulated inflammatory gene expression in primary murine aortic endothelial cells and human THP-1 cells. Primary murine aortic endothelial cells (a,b) or human THP1 cells (c,d) were subjected to 1.5 h incubation with compounds 1–13 (1 μM) followed by stimulation with CML-AGE (10 μg/ml) for 6 h. Cells were then harvested and gene expression of the inflammatory markers Tnfα and Il6 normalized to β-actin (a,b) or 18s rRNA (c,d) was performed. Assays were performed in triplicate and results are representative of three independent experiments. Error bars represent SEM. *indicates p < 0.05 comparing CML-AGE vs. CML-AGE and compound treatment ^#indicates p < 0.001 comparing CML-AGE vs. SFM vehicle (SFM).
(§1) Total RNA was extracted from cells and tissues using the RNeasy lipid kit (Qiagen, Hilden, Germany). cDNA was synthesized with MultiScribe reverse transcriptase (Applied Biosystems, Foster City, CA). Real-time quantitative PCR was performed using the TaqMan method (50 °C for 2 min, 95 °C for 10 min, and 40 cycles of 95 °C for 15 s and 60 °C for 1 min) with premade primer sets (Applied Biosystems). The relative abundance of transcripts was normalized according to the expression of 18S rRNA (for human cells) or β-actin (for murine cells and tissues) using the ΔΔCt method. Supplementary Table S4 lists the specific primers used in the outlined studies.

[2] = tested on: phospho/total Akt in primary murine aortic SMCs; test: CML-AGE-stimulated Akt phosphorylation, Western blot; assay type: cell-based; conditions: 1 µM compound, 1.5 h pretreatment; CML-AGE 10 µg/ml 20 min; p < 0.05
Description: (§2) We tested the effects of compounds 1–13 on cellular signaling in primary murine aortic SMCs. […] In primary murine aortic SMCs, we tested the effects of CML-AGE RAGE ligand on Akt and ERK1/2 phosphorylation, as these pathways are seminally linked to fundamental properties of these cells and their responses to stress, such as growth, proliferation, hypertrophy, migration, and survival.
(§3) Figure 3 Effects of compounds 1–13 on RAGE ligand-stimulated phosphorylation of ERK and AKT in primary murine aortic SMCs. Primary murine SMCs were incubated with compounds 1–13 (1 μM) for 1.5 h and then treated with RAGE ligand CML-AGE (10 μg/ml) for 20 minutes. Cells were harvested and total lysates were subjected to Western blotting with antibodies against phospho-ERK and phospho-AKT. Blots were then re-probed with antibodies to total-ERK and total-AKT and relative optical density (ROD) is reported. (a) Quantified levels of phosphorylated/total ERK normalized to total ERK are shown. (b) Quantified levels of phosphorylated/total AKT normalized to total AKT are shown. Assays results shown are representative of three independent experiments. Error bars represent SEM. *indicates p < 0.05 comparing CML-AGE vs. CML-AGE and compound treatment and ^#indicates p < 0.001 comparing CML-AGE vs. serum free medium (SFM) alone vehicle. Above each Western blot, S = serum-free medium and C = CML-AGE; numbers above the blots indicate the compound number.
(§4) Total protein extracts were prepared from primary murine aortic smooth muscle cells using cell lysis buffer (Cell Signaling Technology, Beverly, MA). Equal amounts of protein (30 μg/sample) were subjected to SDS-PAGE (4–12%) followed by electrophoretic transfer to nitrocellulose membranes. Nonspecific binding was blocked by incubation of membranes with BSA (5%) for 1 h. The blot was incubated with one of the following antibodies as the primary antibody for the reaction: anti-phospho-ERK1/2 (P-ERK1/2) IgG, anti-total-ERK1/2 (T-ERK1/2) IgG, anti-phospho-AKT (P-AKT) IgG, and anti-total-AKT (T-AKT) IgG (Cell Signaling Technology). Each primary antibody was used at a dilution of 1:1,000 overnight at 4 °C according to the manufacturer’s instructions. Horseradish peroxidase-conjugated secondary antibodies (1:2,500; Amersham Biosciences) were used to identify sites of binding of each primary antibody.
(§5) Murine vascular SMCs were cultured from the aortas of 10-week old male mice using a modification of the procedure of Travo and Barret[68]. SMCs were cultured following an explant protocol in accordance with institutional guidelines. Wild-type murine aortic vascular SMCs were isolated and used between passages 8 to 12. Human aortic vascular smooth muscle cells were purchased from American Type Culture Collection (ATCC, Manassas, VA) and cultured according to the methods recommended by ATCC. Murine primary aortic endothelial cells were from 6- to 8-week-old wild-type C57BL/6J mice (Jackson Laboratories, Bar Harbor ME) and used under passage 10[69]. THP-1 cells were obtained from the American Type Tissue Collection (ATCC, Manassas VA) and used according to the manufacturer’s instructions.

[3] = tested on: phospho/total ERK1/2 in primary murine aortic SMCs; test: CML-AGE-stimulated ERK1/2 phosphorylation, Western blot; assay type: cell-based; conditions: 1 µM compound, 1.5 h pretreatment; CML-AGE 10 µg/ml 20 min; p < 0.05
Description: as §2, §3, §4, §5

Tnfa mRNA in kidney = test: CML-AGE infusion in vivo, kidney Tnfa mRNA; parameters: species or system C57BL/6J mice; conditions: mice; four doses 5 mg/kg i.p. every 12 h; CML-AGE 150 µg i.p.; kidney 4 h later; p < 0.05
Method: Next, it was essential to test the ability of the thirteen compounds to block RAGE ligand-mediated inflammation in vivo. […] To test this concept in the present study, we treated wild-type mice with CML-AGE (150 μg) by intraperitoneal injection after pretreatment with four doses of compounds 1–13 (5 mg/kg per dose, 12 h apart). Thirty minutes after the fourth dose of compound, mice were injected with CML-AGE and sacrificed 4 h later. Kidney tissue was retrieved and subjected to real-time quantitative PCR for detection of transcripts encoding inflammatory mediators.
Figure 6 Effect of compounds 1–13 in vivo. (a,b) C57BL/6J mice were subjected to intraperitoneal administration of four doses of compounds 1–13 (5 mg/kg every 12 h) or equal volumes of vehicle (PBS). Thirty minutes after the final injection, mice were injected with CML-AGE (150 μg) by intraperitoneal administration. Four h later, mice were sacrificed and kidney was retrieved. Real time quantitative PCR was performed for detection of Tnfa (a) and Il6 (b). (c) Assessment of compounds on cardiac functional recovery in diabetes. C57BL/6 mice were rendered type 1 diabetic with streptozotocin. After a mean range of 37–45 days of untreated hyperglycemia, mice were sacrificed and hearts rapidly retrieved for assessment of the efficacy of compounds 1–13 (1 μM) or vehicle, DMSO, on left ventricular developed pressure (LVDP) after ischemia. All hearts were subjected to 30 minutes of global ischemia followed by 60 min of reperfusion. Test compounds were introduced 10 minutes prior to the start of ischemia and continued throughout the reperfusion protocol. In (a–c), N = 5–6 mice per group. Error bars represent SEM. In (a–c), *indicates p < 0.05 vs. respective control, and in (a,b), ^#indicates p < 0.001 comparing CML-AGE vs. PBS treatment.
as §1
Male, wild-type C57BL/6J mice were purchased from the Jackson Laboratories. At age 8 weeks, mice were pretreated with 4 doses of compounds 1–13, 5 mg/kg, by intraperitoneal administration twice daily for a total of two days and four total doses. Control treatment consisted of DMSO diluted into PBS. Thirty minutes after the last dose, CML-AGE (150 μg) was injected by intraperitoneal route. 4 h later, mice were sacrificed and kidney tissue was rapidly retrieved for preparation of mRNA and performance of real time quantitative PCR for the following mRNA transcripts, Tnfa and Il6.

[4] = tested on: diabetic mouse heart (ex vivo); test: Isolated perfused diabetic heart, ischemia/reperfusion, LVDP recovery; parameters: species or system C57BL/6 mice; conditions: streptozotocin-diabetic mouse hearts ex vivo; 1 µM compound; 30 min ischemia, 60 min reperfusion; p < 0.05
Method: Figure 6 Effect of compounds 1–13 in vivo. (a,b) C57BL/6J mice were subjected to intraperitoneal administration of four doses of compounds 1–13 (5 mg/kg every 12 h) or equal volumes of vehicle (PBS). Thirty minutes after the final injection, mice were injected with CML-AGE (150 μg) by intraperitoneal administration. Four h later, mice were sacrificed and kidney was retrieved. Real time quantitative PCR was performed for detection of Tnfa (a) and Il6 (b). (c) Assessment of compounds on cardiac functional recovery in diabetes. C57BL/6 mice were rendered type 1 diabetic with streptozotocin. […]
Finally, we tested the effects of these compounds in settings in which RAGE ligands naturally accumulate, particularly the diabetic heart. […] At the end of reperfusion, we measured left ventricular developed pressure (LVDP) in the hearts, a key measure of functional recovery after injury.
Male C57BL/6 mice, age 8–12 weeks, were purchased from The Jackson Laboratory and rendered diabetic by 55 mg/kg by intraperitoneal route of streptozotocin (STZ) (Sigma Aldrich, St. Louis MO) per day in fresh citrate buffer (0.05 mol/l; pH 4.5) for 5 consecutive days. […] Left ventricular developed pressure (LVDP) was measured using a latex balloon in the left ventricle and monitored continuously on an ADI recorder. […]

Row | Compound | effect on CML-AGE-mediated upregulation of Il6 [1] | effect on CML-AGE-mediated stimulation of phospho/total-Akt [2] | effect on CML-AGE-mediated phospho/total ERK1/2 [3] | effect on CML-AGE-mediated upregulation of Tnfa mRNA in kidney (Tnfa mRNA in kidney) | left ventricular developed pressure (LVDP) functional recovery after ischemia/reperfusion vs DMSO vehicle [4]
1 | COc1cc(SC)ccc1C(=O)Nc1cccc(C)n1 [Compound 1] | significant suppression | significant suppression | significant suppression | significant suppression | 
2 | C=CCOc1ccc2c(C(F)(F)F)cc(=O)oc2c1 [Compound 2] | significant suppression | significant suppression | significant suppression | significant suppression | 
3 | Cc1nc2ccccc2n1CC(O)Cn1c2ccccc2c2ccccc21 (centres unmarked) [Compound 3] | significant suppression | significant suppression | significant suppression | significant suppression | statistically-significantly higher LVDP
4 | OC(Cn1ccc2ccccc21)Cn1cnc2ccccc21 (centres unmarked) [Compound 4] | significant suppression | significant suppression | significant suppression |  | 
5 | Cl.Oc1cccc(Nc2nc(-c3ccc(F)cc3F)cs2)c1 [Compound 5] | significant suppression | did not significantly suppress | significant suppression | significant suppression | 
6 | COc1cc(NC(C)=O)c(Cl)cc1C(=O)Nc1nccs1 [Compound 6] | significant suppression | significant suppression | did not significantly affect | significant suppression | 
7 | COC(=O)c1cc(OC)c(OC)cc1NC(=O)C1Oc2ccccc2OC1C (centres unmarked) [Compound 7] | significant suppression | did not significantly suppress | did not significantly affect |  | statistically-significantly higher LVDP
8 | Cc1ccc(S(=O)(=O)N(C)C(F)F)cc1 [Compound 8] | significant suppression | did not significantly suppress | did not significantly affect | significant suppression | 
